The source of these data is ChEMBL document CHEMBL1157258, “Triterpenoids from Schisandra lancifolia with anti-HIV-1 activity” (J Nat Prod, 2006).

One may read the EC50 as the concentration needed to bring the measured effect to its halfway point. The CC50 is the concentration at which the toxic effect on the cells reaches its halfway point. High values mean lower toxicity to the cells, low ones greater toxicity to the cells.

Values after ≈ are worked out from the molar mass of the structure shown. A value given as a limit tells only on which side of the number the result lay.

The test system of series [1] is Human immunodeficiency virus 1. Nature of the series: Antiviral activity against HIV1 infected in human C8166 cells assessed as inhibition of viral-induced cytopathic effect. The class given is functional, organism-based. Conditions: Human immunodeficiency virus 1, C8166.
The nature of series [2]: Cytotoxicity against human C8166 cells by MTT assay. The class given is cell-based. (In general: Tetrazolium assays rely on reduction of a dye to a coloured formazan, in cell work by metabolically active cells.)

`C/C(=C/CC[C@@H](C)[C@H]1CC[C@@]2(C)[C@@H]3CC[C@@H](C(C)(C)O)[C@@]4(CCC(=O)O)C[C@@]34CC[C@]12C)C(=O)O` [LANCIFOICACID A]: the concentration giving a half-maximal response (EC50) in series [1] is 16.2 mg/L (≈ 33.1 µM). The same compound yielded a CC50 in series [2] of 105 mg/L (≈ 215 µM).
As to `Cc1cn([C@H]2C[C@H](N=[N+]=[N-])[C@@H](CO)O2)c(=O)[nH]c1=O` [ZIDOVUDINE], the CC50 in series [2] was > 200 mg/L.
Take `C=C(C)[C@@H]1CC[C@@H]2[C@]3(CC[C@]4(C)[C@@H]([C@H](C)CC/C=C(/C)C(=O)O)CC[C@@]24C)C[C@]13CCC(=O)O` [NIGRANOIC ACID]: the EC50 in series [1] is 10.3 mg/L (≈ 21.9 µM). This compound had a CC50 in series [2] of 88 mg/L (≈ 187 µM).
For `C[C@@H]1CCC(=O)O[C@@H]2C[C@@]3(C)[C@@H]4[C@@H](O)C[C@H]5C(C)(C)C(=O)CC[C@@]56C[C@@]46C[C@@H](O)[C@]3(C)[C@@H]12` [LANCIFODILACTONE H] the same measures were 16.6 mg/L (≈ 37.3 µM) and > 200 mg/L.
